According to PubChem BioAssay (NCI):
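In this assay, cells in 96-well plates receive the compound at five concentrations for 48 hours. Endpoints are linearly interpolated between the surrounding concentrations. GI50 marks 50% less growth. TGI is the concentration that stops growth completely.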

Legend:
Assay in all cases: DTP human tumour cell line panel, 48 h
[1] = system: HL-60(TB) leukemia
[2] = system: NCI-H23 lung
[3] = system: IGROV1 ovarian
[4] = system: RPMI-8226 leukemia
[5] = system: SK-OV-3 ovarian
[6] = system: MALME-3M melanoma
[7] = system: OVCAR-4 ovarian
[8] = system: RXF 393 renal
[9] = system: UACC-62 melanoma
[10] = system: SW-620 colon
[11] = system: OVCAR-3 ovarian
[12] = system: NCI-H226 lung
[13] = system: CCRF-CEM leukemia
[14] = system: MDA-MB-231 breast
[15] = system: A549 NSCLC
[16] = system: U251 CNS
[17] = system: HCC-2998 colon
[18] = system: UO-31 renal
[19] = system: OVCAR-8 ovarian
[20] = system: SK-MEL-5 melanoma
[21] = system: SF-268 CNS
[22] = system: PC-3 prostate
[23] = system: HCT-116 colon
[24] = system: LOX IMVI melanoma
[25] = system: MCF7 breast
[26] = system: NCI-H522 lung
[27] = system: T-47D breast
[28] = system: SF-295 CNS
[29] = system: UACC-257 melanoma
[30] = system: HOP-92 NSCLC
[31] = system: TK-10 renal
[32] = system: SF-539 CNS
[33] = system: DU-145 prostate
[34] = system: MOLT-4 leukemia
[35] = system: NCI-H460 lung
[36] = system: BT-549 breast
[37] = system: 786-0 renal
[38] = system: EKVX NSCLC
[39] = system: HCT-15 colon
[40] = system: COLO 205 colon
[41] = system: NCI/ADR-RES ovarian
[42] = system: SK-MEL-2 melanoma
[43] = system: OVCAR-5 ovarian
[44] = system: SNB-75 CNS
[45] = system: SR leukemia
[46] = system: SK-MEL-28 melanoma
[47] = system: SN12C renal
[48] = system: HT29 colon
[49] = system: K-562 leukemia
[50] = system: A498 renal
[51] = system: SNB-19 CNS
[52] = system: HOP-62 NSCLC
[53] = system: HS 578T breast
[54] = system: CAKI-1 renal
[55] = system: KM12 colon

N[C@@H]1CCCN(c2c(Br)cnc3[nH]cc(NC(=O)C4CC4)c23)C1
GI50 [1]: 0.318 µM
TGI [1]: 4.51 µM
GI50 [2]: 0.234 µM
TGI [2]: > 100 µM
GI50 [3]: 0.409 µM
TGI [3]: > 100 µM
GI50 [4]: 0.68 µM
GI50 [5]: 0.448 µM
TGI [5]: > 100 µM
GI50 [6]: 1.27 µM
TGI [6]: > 100 µM
GI50 [7]: 0.341 µM
TGI [7]: > 100 µM
GI50 [8]: 0.0618 µM
TGI [8]: 0.27 µM
GI50 [9]: 0.464 µM
TGI [9]: > 100 µM
GI50 [10]: 2.06 µM
TGI [10]: > 100 µM
GI50 [11]: 0.364 µM
TGI [11]: > 100 µM
GI50 [12]: 11 µM
TGI [12]: > 94.6 µM
GI50 [13]: 0.211 µM
TGI [13]: > 100 µM
GI50 [14]: 2.91 µM
TGI [14]: 77.5 µM
GI50 [15]: 1.5 µM
TGI [15]: > 100 µM
GI50 [16]: 7.96 µM
TGI [16]: > 100 µM
GI50 [17]: 0.399 µM
TGI [17]: > 100 µM
GI50 [18]: 0.232 µM
TGI [18]: 1.06 µM
GI50 [19]: 0.51 µM
TGI [19]: > 100 µM
GI50 [20]: 0.469 µM
TGI [20]: 2.24 µM
GI50 [21]: 3.92 µM
TGI [21]: > 100 µM
GI50 [22]: 20.3 µM
TGI [22]: > 100 µM
GI50 [23]: 10.6 µM
TGI [23]: > 100 µM
GI50 [24]: 0.435 µM
TGI [24]: 13.4 µM
GI50 [25]: 0.123 µM
TGI [25]: > 100 µM
GI50 [26]: 13 µM
TGI [26]: > 100 µM
GI50 [27]: 38.2 µM
TGI [27]: > 100 µM
GI50 [28]: 0.328 µM
TGI [28]: > 100 µM
TGI [29]: > 100 µM
GI50 [30]: 1.02 µM
TGI [30]: > 55.8 µM
GI50 [31]: 0.606 µM
TGI [31]: > 68.6 µM
GI50 [32]: 0.0809 µM
TGI [32]: 0.503 µM
GI50 [33]: 0.459 µM
TGI [33]: > 100 µM
GI50 [34]: 0.279 µM
TGI [34]: > 100 µM
GI50 [35]: 0.785 µM
TGI [35]: > 100 µM
GI50 [36]: 0.45 µM
TGI [36]: 38 µM
GI50 [37]: 0.22 µM
TGI [37]: 0.709 µM
GI50 [38]: 2.32 µM
TGI [38]: > 31.6 µM
GI50 [39]: 0.54 µM
TGI [39]: > 100 µM
GI50 [40]: 2.27 µM
TGI [40]: 59 µM
GI50 [41]: 0.393 µM
TGI [41]: > 70.7 µM
GI50 [42]: 0.492 µM
TGI [42]: > 100 µM
GI50 [43]: 0.478 µM
TGI [43]: > 100 µM
GI50 [44]: 1.53 µM
TGI [44]: 7.54 µM
GI50 [45]: 0.112 µM
TGI [45]: > 100 µM
GI50 [46]: 77.2 µM
TGI [46]: > 100 µM
GI50 [47]: 1.78 µM
TGI [47]: > 100 µM
GI50 [48]: 1.01 µM
TGI [48]: > 100 µM
GI50 [49]: 0.303 µM
TGI [49]: > 100 µM
GI50 [50]: 0.0412 µM
TGI [50]: 0.182 µM
GI50 [51]: 0.692 µM
TGI [51]: > 100 µM
GI50 [52]: 0.646 µM
TGI [52]: > 100 µM
GI50 [53]: 0.417 µM
TGI [53]: 26.1 µM
GI50 [54]: 0.518 µM
TGI [54]: 6 µM
GI50 [55]: 0.67 µM
TGI [55]: > 100 µM
